Reference: article PMC7407272, “Induction of Lysosome Membrane Permeabilization as a Therapeutic Strategy to Target Pancreatic Cancer Stem Cells” (Cancers, 2020)

How the values were obtained:
Experiment in all cases: KINOMEscan
Assay type in all cases: binding
Conditions in all cases: read-out: % Ctrl
[1] = target: T1, FES (Homo sapiens, UniProt P07332)
T1 construct: purchased DiscoveRx KINOMEscan

[2] = target: T2, PIK3C2B (Homo sapiens, UniProt O00750)
T2 construct: purchased DiscoveRx KINOMEscan

[3] = target: T3, GAK (Homo sapiens, UniProt O14976)
T3 construct: purchased DiscoveRx KINOMEscan

[4] = target: T4, PIK3CB (Homo sapiens, UniProt P42338)
T4 construct: purchased DiscoveRx KINOMEscan

[5] = target: T5, AKT2 (Homo sapiens, UniProt P31751)
T5 construct: purchased DiscoveRx KINOMEscan

[6] = target: T6, PIP5K1C (Homo sapiens, UniProt O60331)
T6 construct: purchased DiscoveRx KINOMEscan

[7] = target: T7, ANKK1 (Homo sapiens, UniProt Q8NFD2)
T7 construct: purchased DiscoveRx KINOMEscan

[8] = target: T8, PLK1 (Homo sapiens, UniProt P53350)
T8 construct: purchased DiscoveRx KINOMEscan

[9] = target: T9, IRAK3 (Homo sapiens, UniProt Q9Y616)
T9 construct: purchased DiscoveRx KINOMEscan

[10] = target: T10, PRKCI (Homo sapiens, UniProt P41743)
T10 construct: purchased DiscoveRx KINOMEscan

[11] = target: T11, BRSK1 (Homo sapiens, UniProt Q8TDC3)
T11 construct: purchased DiscoveRx KINOMEscan

[12] = target: T12, PRKG1 (Homo sapiens, UniProt Q13976)
T12 construct: purchased DiscoveRx KINOMEscan

[13] = target: T13, PYK2 (Homo sapiens, UniProt Q14289)
T13 construct: purchased DiscoveRx KINOMEscan

[14] = target: T14, KIT(D816H) (Homo sapiens, UniProt P10721, D816H)
T14 construct: purchased DiscoveRx KINOMEscan

[15] = target: T15, CAMK2G (Homo sapiens, UniProt Q13555)
T15 construct: purchased DiscoveRx KINOMEscan

[16] = target: T16, RIPK4 (Homo sapiens, UniProt P57078)
T16 construct: purchased DiscoveRx KINOMEscan

[17] = target: T17, RPS6KA4(KD1-N-t.) (Homo sapiens, UniProt O75676)
T17 construct: RPS6KA4(KD1-N-t.); purchased DiscoveRx KINOMEscan

[18] = target: T18, RPS6KA5(KD2-C-t.) (Homo sapiens, UniProt O75582)
T18 construct: RPS6KA5(KD2-C-t.); purchased DiscoveRx KINOMEscan

[19] = target: T19, RSK1(KD1-N-t.) (Homo sapiens, UniProt Q15418)
T19 construct: RSK1(KD1-N-t.); purchased DiscoveRx KINOMEscan

[20] = target: T20, S6K1 (Homo sapiens, UniProt P23443)
T20 construct: purchased DiscoveRx KINOMEscan

[21] = target: T21, MAP4K5 (Homo sapiens, UniProt Q9Y4K4)
T21 construct: purchased DiscoveRx KINOMEscan

[22] = target: T22, MARK2 (Homo sapiens, UniProt Q7KZI7)
T22 construct: purchased DiscoveRx KINOMEscan

[23] = target: T23, SLK (Homo sapiens, UniProt Q9H2G2)
T23 construct: purchased DiscoveRx KINOMEscan

[24] = target: T24, MEK2 (Homo sapiens, UniProt P36507)
T24 construct: purchased DiscoveRx KINOMEscan

[25] = target: T25, DAPK3 (Homo sapiens, UniProt O43293)
T25 construct: purchased DiscoveRx KINOMEscan

[26] = target: T26, DCAMKL2 (Homo sapiens, UniProt Q8N568)
T26 construct: purchased DiscoveRx KINOMEscan

[27] = target: T27, MINK (Homo sapiens, UniProt Q8N4C8)
T27 construct: purchased DiscoveRx KINOMEscan

[28] = target: T28, DRAK2 (Homo sapiens, UniProt O94768)
T28 construct: purchased DiscoveRx KINOMEscan

[29] = target: T29, TGFBR2 (Homo sapiens, UniProt P37173)
T29 construct: purchased DiscoveRx KINOMEscan

[30] = target: T30, TNK2 (Homo sapiens, UniProt Q07912)
T30 construct: purchased DiscoveRx KINOMEscan

[31] = target: T31, TRKA (Homo sapiens, UniProt P04629)
T31 construct: purchased DiscoveRx KINOMEscan

[32] = target: T32, TRKB (Homo sapiens, UniProt Q16620)
T32 construct: purchased DiscoveRx KINOMEscan

[33] = target: T33, NEK10 (Homo sapiens, UniProt Q6ZWH5)
T33 construct: purchased DiscoveRx KINOMEscan

[34] = target: T34, EPHB3 (Homo sapiens, UniProt P54753)
T34 construct: purchased DiscoveRx KINOMEscan

[35] = target: T35, OSR1 (Homo sapiens, UniProt O95747)
T35 construct: purchased DiscoveRx KINOMEscan

[36] = target: T36, WEE2 (Homo sapiens, UniProt P0C1S8)
T36 construct: purchased DiscoveRx KINOMEscan

[37] = target: T37, ERBB2 (Homo sapiens, UniProt P04626)
T37 construct: purchased DiscoveRx KINOMEscan

[38] = target: T38, p38-alpha (Homo sapiens, UniProt Q16539)
T38 construct: purchased DiscoveRx KINOMEscan

[39] = target: T39, ERBB3 (Homo sapiens, UniProt P21860)
T39 construct: purchased DiscoveRx KINOMEscan

[40] = target: T40, p38-delta (Homo sapiens, UniProt O15264)
T40 construct: purchased DiscoveRx KINOMEscan

[41] = target: T41, WNK4 (Homo sapiens, UniProt Q96J92)
T41 construct: purchased DiscoveRx KINOMEscan

[42] = target: T42, YANK1 (Homo sapiens, UniProt Q8WU08)
T42 construct: purchased DiscoveRx KINOMEscan

[43] = target: T43, YANK2 (Homo sapiens, UniProt Q9NY57)
T43 construct: purchased DiscoveRx KINOMEscan

[44] = target: T44, PCTK1 (Homo sapiens, UniProt Q00536)
T44 construct: purchased DiscoveRx KINOMEscan

T22 sequence (Q7KZI7 whole entry): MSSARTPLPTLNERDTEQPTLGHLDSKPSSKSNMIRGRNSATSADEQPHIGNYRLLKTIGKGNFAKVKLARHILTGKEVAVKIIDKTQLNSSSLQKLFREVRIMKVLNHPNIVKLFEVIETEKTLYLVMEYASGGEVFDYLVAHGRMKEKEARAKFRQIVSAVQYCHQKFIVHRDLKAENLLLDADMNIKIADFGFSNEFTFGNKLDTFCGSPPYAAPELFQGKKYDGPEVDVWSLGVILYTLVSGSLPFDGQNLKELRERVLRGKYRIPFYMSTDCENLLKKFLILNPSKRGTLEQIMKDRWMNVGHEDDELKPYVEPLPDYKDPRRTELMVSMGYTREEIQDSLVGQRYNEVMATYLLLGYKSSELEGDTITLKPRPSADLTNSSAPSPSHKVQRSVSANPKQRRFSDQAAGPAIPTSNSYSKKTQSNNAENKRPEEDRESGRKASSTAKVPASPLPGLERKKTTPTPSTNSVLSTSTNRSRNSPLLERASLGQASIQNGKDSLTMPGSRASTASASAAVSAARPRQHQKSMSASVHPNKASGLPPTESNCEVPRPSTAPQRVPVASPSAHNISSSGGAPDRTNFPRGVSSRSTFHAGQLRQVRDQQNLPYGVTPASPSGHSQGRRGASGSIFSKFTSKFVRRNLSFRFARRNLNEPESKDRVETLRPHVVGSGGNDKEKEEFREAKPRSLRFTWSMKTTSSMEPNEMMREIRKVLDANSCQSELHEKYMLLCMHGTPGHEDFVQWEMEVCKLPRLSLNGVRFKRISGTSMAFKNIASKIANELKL
T15 sequence (Q13555 whole entry): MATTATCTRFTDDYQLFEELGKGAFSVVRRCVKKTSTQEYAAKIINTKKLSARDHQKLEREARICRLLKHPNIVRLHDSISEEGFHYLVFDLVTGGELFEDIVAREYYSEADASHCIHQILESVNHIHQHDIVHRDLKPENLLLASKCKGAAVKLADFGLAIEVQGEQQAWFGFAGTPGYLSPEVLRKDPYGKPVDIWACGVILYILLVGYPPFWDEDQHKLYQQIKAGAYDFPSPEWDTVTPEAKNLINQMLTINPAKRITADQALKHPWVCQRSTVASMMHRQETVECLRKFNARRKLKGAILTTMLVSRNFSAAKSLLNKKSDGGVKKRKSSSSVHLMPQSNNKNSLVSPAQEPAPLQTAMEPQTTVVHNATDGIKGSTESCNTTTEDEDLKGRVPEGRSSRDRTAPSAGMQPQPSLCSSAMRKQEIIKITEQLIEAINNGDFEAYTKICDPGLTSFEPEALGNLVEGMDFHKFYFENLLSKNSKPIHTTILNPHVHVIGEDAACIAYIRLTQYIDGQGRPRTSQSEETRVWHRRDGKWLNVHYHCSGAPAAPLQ
T5 sequence (P31751 whole entry): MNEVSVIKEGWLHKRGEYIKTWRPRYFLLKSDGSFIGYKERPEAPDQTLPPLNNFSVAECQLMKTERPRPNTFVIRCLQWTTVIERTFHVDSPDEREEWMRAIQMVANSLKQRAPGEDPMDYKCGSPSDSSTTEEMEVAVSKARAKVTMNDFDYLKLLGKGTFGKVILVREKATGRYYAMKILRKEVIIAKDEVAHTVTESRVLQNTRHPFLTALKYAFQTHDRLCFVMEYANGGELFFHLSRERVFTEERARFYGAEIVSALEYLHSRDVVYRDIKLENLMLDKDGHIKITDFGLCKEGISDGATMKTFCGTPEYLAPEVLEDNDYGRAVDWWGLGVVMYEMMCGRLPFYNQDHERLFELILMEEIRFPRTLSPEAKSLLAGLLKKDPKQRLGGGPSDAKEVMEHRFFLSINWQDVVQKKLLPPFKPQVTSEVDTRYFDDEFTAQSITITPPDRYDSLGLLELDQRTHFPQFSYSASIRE
T14 sequence (P10721 26-976 D816H): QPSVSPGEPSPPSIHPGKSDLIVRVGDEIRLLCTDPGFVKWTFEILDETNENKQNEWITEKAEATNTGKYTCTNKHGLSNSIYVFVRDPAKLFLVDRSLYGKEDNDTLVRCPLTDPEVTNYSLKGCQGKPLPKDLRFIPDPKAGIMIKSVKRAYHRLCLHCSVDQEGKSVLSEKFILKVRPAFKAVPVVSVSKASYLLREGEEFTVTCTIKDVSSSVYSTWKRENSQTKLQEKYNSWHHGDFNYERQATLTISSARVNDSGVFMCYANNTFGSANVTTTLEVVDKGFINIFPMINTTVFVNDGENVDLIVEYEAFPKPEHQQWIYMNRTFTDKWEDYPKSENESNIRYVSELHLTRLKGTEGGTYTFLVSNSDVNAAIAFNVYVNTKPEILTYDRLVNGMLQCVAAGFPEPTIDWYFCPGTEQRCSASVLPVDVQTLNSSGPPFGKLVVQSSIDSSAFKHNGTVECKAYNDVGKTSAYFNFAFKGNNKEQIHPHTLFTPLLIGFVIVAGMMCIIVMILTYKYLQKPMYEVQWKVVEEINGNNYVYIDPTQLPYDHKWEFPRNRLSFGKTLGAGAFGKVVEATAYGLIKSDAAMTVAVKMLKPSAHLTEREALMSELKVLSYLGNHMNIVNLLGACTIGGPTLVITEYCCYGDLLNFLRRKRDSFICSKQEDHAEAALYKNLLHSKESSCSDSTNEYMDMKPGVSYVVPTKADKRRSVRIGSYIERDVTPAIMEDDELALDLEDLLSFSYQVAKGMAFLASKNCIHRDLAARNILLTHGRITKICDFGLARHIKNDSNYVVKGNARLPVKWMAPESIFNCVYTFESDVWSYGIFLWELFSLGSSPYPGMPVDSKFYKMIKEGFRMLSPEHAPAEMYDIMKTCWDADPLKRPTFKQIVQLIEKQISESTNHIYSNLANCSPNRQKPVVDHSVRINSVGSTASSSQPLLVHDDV
T38 sequence (Q16539 whole entry): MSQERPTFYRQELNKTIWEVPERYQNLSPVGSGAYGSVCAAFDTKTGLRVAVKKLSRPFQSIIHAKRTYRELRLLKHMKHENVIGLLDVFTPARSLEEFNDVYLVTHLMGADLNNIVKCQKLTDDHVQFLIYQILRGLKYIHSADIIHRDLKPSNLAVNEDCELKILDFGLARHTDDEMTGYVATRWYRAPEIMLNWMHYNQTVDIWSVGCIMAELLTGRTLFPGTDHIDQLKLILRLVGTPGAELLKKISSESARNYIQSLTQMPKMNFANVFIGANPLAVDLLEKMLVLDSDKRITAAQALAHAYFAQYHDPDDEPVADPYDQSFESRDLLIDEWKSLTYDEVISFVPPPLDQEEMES
T17 sequence (O75676 1-371 limits assumed): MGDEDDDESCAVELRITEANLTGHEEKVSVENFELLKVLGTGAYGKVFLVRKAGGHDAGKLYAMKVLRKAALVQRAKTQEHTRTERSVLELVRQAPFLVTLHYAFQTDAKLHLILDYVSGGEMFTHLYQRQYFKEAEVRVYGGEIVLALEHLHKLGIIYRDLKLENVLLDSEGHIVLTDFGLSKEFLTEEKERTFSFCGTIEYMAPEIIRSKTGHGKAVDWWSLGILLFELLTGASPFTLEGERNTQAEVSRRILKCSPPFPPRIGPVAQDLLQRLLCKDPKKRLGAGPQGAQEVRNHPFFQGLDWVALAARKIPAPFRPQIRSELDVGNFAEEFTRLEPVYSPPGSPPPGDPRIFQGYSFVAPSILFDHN
T43 sequence (Q9NY57 whole entry): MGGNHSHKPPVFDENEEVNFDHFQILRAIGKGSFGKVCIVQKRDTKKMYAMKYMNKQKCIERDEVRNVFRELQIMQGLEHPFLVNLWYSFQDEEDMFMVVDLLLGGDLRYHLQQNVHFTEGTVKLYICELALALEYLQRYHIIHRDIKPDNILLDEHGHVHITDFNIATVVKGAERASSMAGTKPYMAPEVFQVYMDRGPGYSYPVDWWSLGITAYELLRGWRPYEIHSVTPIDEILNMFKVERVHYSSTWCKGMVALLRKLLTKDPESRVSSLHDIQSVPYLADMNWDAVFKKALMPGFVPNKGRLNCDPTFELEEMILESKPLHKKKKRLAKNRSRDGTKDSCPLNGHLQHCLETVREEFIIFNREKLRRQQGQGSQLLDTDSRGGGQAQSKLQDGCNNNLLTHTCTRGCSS
T25 sequence (O43293 whole entry): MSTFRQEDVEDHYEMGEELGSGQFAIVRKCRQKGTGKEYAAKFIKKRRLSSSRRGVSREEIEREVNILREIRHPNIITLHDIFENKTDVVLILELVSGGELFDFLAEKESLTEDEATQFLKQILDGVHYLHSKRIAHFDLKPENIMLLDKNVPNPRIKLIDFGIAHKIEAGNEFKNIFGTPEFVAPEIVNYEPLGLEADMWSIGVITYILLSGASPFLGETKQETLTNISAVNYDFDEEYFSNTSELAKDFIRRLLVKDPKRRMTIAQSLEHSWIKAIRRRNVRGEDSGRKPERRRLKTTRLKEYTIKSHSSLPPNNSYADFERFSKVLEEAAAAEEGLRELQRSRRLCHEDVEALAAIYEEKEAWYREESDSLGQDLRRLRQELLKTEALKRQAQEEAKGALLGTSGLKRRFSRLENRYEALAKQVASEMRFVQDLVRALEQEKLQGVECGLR
T24 sequence (P36507 whole entry): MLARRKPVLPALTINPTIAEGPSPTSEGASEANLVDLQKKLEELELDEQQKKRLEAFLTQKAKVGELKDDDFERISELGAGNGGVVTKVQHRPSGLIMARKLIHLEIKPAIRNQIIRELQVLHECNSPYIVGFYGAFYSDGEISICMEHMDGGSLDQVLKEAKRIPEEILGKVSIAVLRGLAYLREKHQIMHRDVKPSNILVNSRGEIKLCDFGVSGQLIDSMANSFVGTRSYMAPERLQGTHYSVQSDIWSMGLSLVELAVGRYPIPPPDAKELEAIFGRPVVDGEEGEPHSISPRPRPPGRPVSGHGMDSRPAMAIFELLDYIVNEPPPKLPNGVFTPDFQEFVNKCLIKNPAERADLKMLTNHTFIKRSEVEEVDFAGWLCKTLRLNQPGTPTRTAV

CN1CCC(CNc2ccc3ncc(C(=O)Nc4cccc(OC(F)(F)F)c4)n3n2)CC1 [Cpd 2]
remaining binding at 1 µM [1]: 87%
remaining binding at 1 µM [2]: 48%
remaining binding at 1 µM [3]: 89%
remaining binding at 1 µM [4]: 91%
remaining binding at 1 µM [5]: 100%
remaining binding at 1 µM [6]: 74%
remaining binding at 1 µM [7]: 94%
remaining binding at 1 µM [8]: 98%
remaining binding at 1 µM [9]: 100%
remaining binding at 1 µM [10]: 85%
remaining binding at 1 µM [11]: 100%
remaining binding at 1 µM [12]: 100%
remaining binding at 1 µM [13]: 95%
remaining binding at 1 µM [14]: 91%
remaining binding at 1 µM [15]: 100%
remaining binding at 1 µM [16]: 96%
remaining binding at 1 µM [17]: 92%
remaining binding at 1 µM [18]: 92%
remaining binding at 1 µM [19]: 97%
remaining binding at 1 µM [20]: 93%
remaining binding at 1 µM [21]: 92%
remaining binding at 1 µM [22]: 96%
remaining binding at 1 µM [23]: 79%
remaining binding at 1 µM [24]: 90%
remaining binding at 1 µM [25]: 75%
remaining binding at 1 µM [26]: 97%
remaining binding at 1 µM [27]: 94%
remaining binding at 1 µM [28]: 80%
remaining binding at 1 µM [29]: 100%
remaining binding at 1 µM [30]: 99%
remaining binding at 1 µM [31]: 82%
remaining binding at 1 µM [32]: 89%
remaining binding at 1 µM [33]: 85%
remaining binding at 1 µM [34]: 86%
remaining binding at 1 µM [35]: 100%
remaining binding at 1 µM [36]: 92%
remaining binding at 1 µM [37]: 88%
remaining binding at 1 µM [38]: 96%
remaining binding at 1 µM [39]: 100%
remaining binding at 1 µM [40]: 100%
remaining binding at 1 µM [41]: 100%
remaining binding at 1 µM [42]: 100%
remaining binding at 1 µM [43]: 100%
remaining binding at 1 µM [44]: 100%
